System: human keratinocytes
Test: Cytotoxicity of cadmium chloride toward human keratinocytes in culture (intracellular glutathione, monochlorobimane probe), in the presence or absence of hyacinth extract
Format: cell-based
Details: 24 hours; for toxicity toward human keratinocytes: human keratinocytes in vitro
Experimental: Heavy metals such as cadmium, nickel, lead, mercury, etc. can lead to cytotoxicity on the cells of various organs including the skin. The cytotoxic effect of cadmium on human keratinocytes in culture was evaluated by means of a technique using a fluorescent probe to measure the level of intracellular glutathione (J. C. Fernandez Checa et al. 1990, R. Kannan et al. 1993).
The study was performed on a monolayer culture of human keratinocytes obtained from plastic surgeries. The cells are inoculated on D-3 into 96-well culture dishes at a rate of 25 000 cells/cm^2 in 100 μl of culture medium (calf serum-free defined medium, NR2, Biofluids). The incubations are performed in an incubator at 37° C. under a humid atmosphere enriched with 5% CO2.
The cells are treated for 24 hours with increasing concentrations (0, 10, 25, 50, 75, 100, 150 and 200 μM) of cadmium chloride (CdCl2) alone, so as to determine its cytotoxicity. In parallel, a treatment is performed under the same conditions, but in the presence of hyacinth extract (0.125%). The incubations are performed in an incubator at 37° C., [lacuna]% CO2 under a humid atmosphere.
At the end of the contact period, labeling of the intracellular glutathione is performed using a specific fluorescent probe: monochlorobimane (MCB).
Briefly, after treatment, rinse the cells with buffer (PBS) so as to remove the treatment solutions.
Add 100 μl per well of a 1 mM MCB solution over one hour at room temperature and protected from light.
Eliminate the MCB, and add 200 μl/well of PBS buffer.
Read on the spectrofluorimeter (excitation: 380 nm; emission: 485 nm).
The fluorescence obtained is proportional to the amount of glutathione conjugated to the MCB.
Calculate the concentration of CdCl2 that results in a 50% drop in the level of glutathione (=IC.50)

[Cl][Cd][Cl] [cadmium chloride]
IC50 (CdCl2 alone, human keratinocyte monolayer, concentration giving 50% drop in glutathione level/cell viability, 3 independent experiments, read-out: IC.50 of cadmium chloride without protecting agent, Mean ± SEM): 43.7 µM
toxicity toward human keratinocytes (listed as Cadmium chloride): considerable toxicity
toxicity toward human keratinocytes (listed as cadmium): strong toxicity

From patent US20040047831A1, “Use of a cell extract of at least a plant of the family pontederiaceae as anti-pollution agent” (priority 2000, published 2004)
